{"source": "patent US9458141B2", "about": "“Low molecular weight thyroid stimulating hormone receptor (TSHR) agonists” (The United States of America, as represented by the …, priority 2008, dated 2016)", "key": {"human TSHR [1]": {"target": "T1, human TSHR (Homo sapiens, UniProt P16473)", "T1 construct": "expressed in transfected cells", "T1 sequence (P16473 21-764)": "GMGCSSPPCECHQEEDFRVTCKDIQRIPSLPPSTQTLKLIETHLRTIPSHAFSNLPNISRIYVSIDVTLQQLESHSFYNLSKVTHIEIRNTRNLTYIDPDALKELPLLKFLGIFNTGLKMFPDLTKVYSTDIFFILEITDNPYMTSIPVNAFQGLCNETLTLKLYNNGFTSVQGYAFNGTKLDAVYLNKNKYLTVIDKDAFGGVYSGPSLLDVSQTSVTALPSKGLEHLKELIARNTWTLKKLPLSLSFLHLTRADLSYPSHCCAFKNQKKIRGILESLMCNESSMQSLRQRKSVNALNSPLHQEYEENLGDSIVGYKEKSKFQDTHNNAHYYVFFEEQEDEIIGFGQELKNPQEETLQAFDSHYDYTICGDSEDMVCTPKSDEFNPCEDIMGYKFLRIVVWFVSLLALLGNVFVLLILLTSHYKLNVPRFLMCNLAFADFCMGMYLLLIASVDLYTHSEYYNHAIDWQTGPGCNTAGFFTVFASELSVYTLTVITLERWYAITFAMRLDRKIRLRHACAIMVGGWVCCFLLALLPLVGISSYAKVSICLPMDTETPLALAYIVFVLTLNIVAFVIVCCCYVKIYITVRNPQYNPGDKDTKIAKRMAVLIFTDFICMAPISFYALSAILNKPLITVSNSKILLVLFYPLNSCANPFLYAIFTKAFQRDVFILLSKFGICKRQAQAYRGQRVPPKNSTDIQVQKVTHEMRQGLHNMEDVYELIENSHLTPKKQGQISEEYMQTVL", "assay": "Confirmatory cAMP assay, HEK EM 293 cells stably expressing TSHR", "assay_type": "cell-based", "details": "1 h incubation, 1 mM IBMX; call rule not given here", "text": "cDNA for human TSHR was amplified by PCR from hTSHR-pSVL (1) and inserted into the pcDNA3.1(−)/hygromycin vector using restriction sites XhoI and BamHI. cDNA for human LHCGR was amplified by PCR from hLHR-pGS5 (2) and was inserted into the pcDNA3.1(+)/hygromycin vector using restriction sites BamHI and XhoI. The FSHR cDNA in pcDNA3.1 was obtained from the Missouri S&T cDNA Resource Center (www.cDNA.org) and was subcloned into the pcDNA3.1(−)/hygromycin vector. Constructs were confirmed by sequencing (MWG Biotech). HEK-EM 293 cells were transfected with the cDNA of TSHR, LHCGR or FSHR using FuGENE 6 Transfection reagent (Roche Diagnostics) according to the manufacturer's protocol. Two days after transfection cells were passaged and grown in Dulbecco's modified Eagle's Medium (DMEM) supplemented with 10% fetal bovine serum, 100 units/ml penicillin and 10 μg/ml streptomycin (Life Technologies Inc.) and with hygromycin (250 μg/ml) as a selection marker. After 7 to 10 days hygromycin-resistant clones were selected, and after a few days of further growth submitted for a cAMP assay to identify clones that stably express the appropriate receptor. Cell Culture. Cells stably expressing TSHR, LHCGR or FSHR and parental HEK 293 cells were maintained in DMEM medium containing 10% FBS, 100 units/ml Penicillin, 100 μg/ml Streptomycin, at 37° C. in 5% CO2. For the cells lines stably expressing TSHR, LHCGR or FSHR, additional 250 μg/ml Hygromycin was added during the cell culture. The cells were seeded at a density of 3 to 4 million cells in a T175 flask containing 35 ml of media and were allowed to grow for 3 days to reach 80-90% confluence. A flask of HEK 293 cells at this density generally yielded 30 million cells total. Homogeneous Time Resolved Fluorescence (HTRF) cAMP Assay. Compounds were assayed using a HTRF cAMP detection kit (Cisbio, Bedford, Mass.) on both TSHR cell line and parental cell line. Briefly, 750 cells were plated in 2.5 μl/well of complete media (DMEM containing 10% FCS) in 1536 well solid bottom white plates and 20 nl/well compound in DMSO solution or controls was added. Following 30 minute incubation at room temperature, 2.5 μl/well of labeled d2 cAMP and 2.5 μl/well of anti-cAMP antibody (both diluted 1:20 in lysis buffer) were added to each well using a flying reagent dispenser (Aurora Discovery, San Diego). Plates were measured using the Envision plate reader (PerkinElmer, Boston, Mass.) with excitation at 330 nm and emissions of 615 nm and 660 nm. Compound Preparation. […] Data Analysis. […] The EC50 values of compounds were calculated from the concentration-response curves by nonlinear regression analysis using Prism software (GraphPad Software, San Diego, Calif.). Confirmatory cAMP Assay and Test for Selectivity Towards TSHR 50,000 cells/well were plated in complete media (DMEM containing 10% FCS) in 96 well plates. […] Following aspiration of the medium after incubation with compounds, cells were lysed using lysis buffer of the cAMP-Screen Direct™ System (Applied Biosystems, Cat # CSD200). The cAMP content of the cell lysate was determined using the manufacturer's protocol. […] Below is a List of Compounds that were Assayed via the Homogeneous Time Resolved Fluorescence (HTRF) cAMP Assay."}, "human TSHR [2]": {"target": "T1, human TSHR", "assay": "Homogeneous Time Resolved Fluorescence (HTRF) cAMP assay, TSHR cell line", "assay_type": "cell-based", "details": "for Maximum Activity compared to TSH: 100% activity = response of 30 mU/ml TSH, 0% = DMSO control, in %; for AC50: TSHR cell line, 30 minute incubation; for Emax: read-out: Maximum Activity compared to TSH, 100% activity = response of 30 mU/ml TSH, 0% = DMSO control"}}, "note": "Like-named read-outs stand apart in the source and are kept apart here."}
{"smiles": "COc1ccc(-c2nc3ccccc3c(=O)n2Cc2ccco2)cc1COc1ccc(NC(C)=O)cc1", "note": "[Compound 3/1, N-(4-(5-(3-(Furan-2-ylmethyl)-4-oxo-3,4-dihydroquinazolin-2-yl)-2-methoxybenzyloxy)phenyl)acetamide]", "values": [{"measurement": "EC50", "setting": "human TSHR [1]", "result": 0.1, "unit": "µM"}]}
{"smiles": "COc1ccc(C2Nc3ccccc3C(=O)N2Cc2ccccc2)cc1COc1ccc(NC(C)=O)cc1", "note": "(stereo not shown) [Compound 3/2, N-(4-(5-(3-Benzyl-4-oxo-1,2,3,4-tetrahydroquinazolin-2-yl)-2-methoxybenzyloxy)phenyl)acetamide]", "values": [{"measurement": "EC50", "setting": "human TSHR [1]", "result": 0.541, "unit": "µM"}]}
{"smiles": "COc1ccc(C2Nc3ccccc3C(=O)N2Cc2ccco2)cc1COc1ccc(NC(C)=O)cc1", "note": "(stereo not shown) [Compound 3, N-(4-(5-(3-(Furan-2-ylmethyl)-4-oxo-1,2,3,4-tetrahydroquinazolin-2-yl)-2-methoxybenzyloxy)phenyl)acetamide]", "values": [{"measurement": "EC50", "setting": "human TSHR [1]", "result": 0.59, "unit": "µM"}]}
{"smiles": "COc1ccc(C2Nc3cccc(O)c3C(=O)N2Cc2ccccc2)cc1COc1ccc(NC(C)=O)cc1", "note": "(stereo not shown) [Compound 3/4, N-(4-(5-(3-Benzyl-5-hydroxy-4-oxo-1,2,3,4-tetrahydroquinazolin-2-yl)-2-methoxybenzyloxy)phenyl)acetamide]", "values": [{"measurement": "EC50", "setting": "human TSHR [1]", "result": 0.025, "unit": "µM"}]}
{"smiles": "COc1ccc(C2Nc3ccccc3C(=O)N2Cc2ccccc2)cc1CSc1ccc(NC(C)=O)cc1", "note": "(stereo not shown) [Compound 3/5, N-(4-(5-(3-Benzyl-4-oxo-1,2,3,4-tetrahydroquinazolin-2-yl)-2-methoxybenzylthio)phenyl)acetamide]", "values": [{"measurement": "EC50", "setting": "human TSHR [1]", "result": 0.038, "unit": "µM"}]}
{"smiles": "COc1ccc(-c2nc3ccccc3c(=O)n2Cc2ccccc2)cc1COc1ccc(NC(C)=O)cc1", "note": "[Structure 52]", "values": [{"measurement": "Maximum Activity compared to TSH", "setting": "human TSHR [2]", "result": 104.78}, {"measurement": "AC50", "setting": "human TSHR [2]; HTRF cAMP, read-out: AC50", "result": 8.91, "unit": "µM"}]}
{"smiles": "COc1ccc(CN(Cc2ccccc2)C(=O)c2ccccc2)cc1COc1ccc(NC(C)=O)cc1", "note": "[Structure 40]", "values": [{"measurement": "Maximum Activity compared to TSH", "setting": "human TSHR [2]", "result": 128.80}, {"measurement": "AC50", "setting": "human TSHR [2]; HTRF cAMP, read-out: AC50", "result": 11.2, "unit": "µM"}]}
{"smiles": "COc1ccc(C(=O)N(Cc2ccccc2)Cc2ccco2)c(O)c1", "note": "[Structure 102]", "values": [{"measurement": "AC50", "setting": "human TSHR [2]; HTRF cAMP, read-out: AC50", "result": 15.8, "unit": "µM"}, {"measurement": "Emax", "setting": "human TSHR [2]", "result": 88.7, "unit": "%"}]}
{"smiles": "COc1ccc(C2Nc3ccccc3C(=O)N2Cc2ccco2)cc1COc1ccccc1", "note": "(stereo not shown) [Structure 207]", "values": [{"measurement": "AC50", "setting": "human TSHR [2]; HTRF cAMP", "result": "inactive"}]}
{"smiles": "COc1ccc(C2Nc3ccccc3C(=O)N2Cc2ccc(-c3ccccc3)cc2)cc1COc1ccc(NC(C)=O)cc1", "note": "(stereo not shown) [Structure 74]", "values": [{"measurement": "AC50", "setting": "human TSHR [2]; HTRF cAMP, read-out: AC50", "result": 2.82, "unit": "µM"}, {"measurement": "Emax", "setting": "human TSHR [2]", "result": 36, "unit": "%"}]}
{"smiles": "COc1ccc(C2Nc3ccccc3C(=O)N2Cc2ccccc2)cc1COc1ccc(NC(C)=O)cc1", "note": "(single isomer, unassigned) [Structure 26]", "values": [{"measurement": "Maximum Activity compared to TSH", "setting": "human TSHR [2]", "result": 217.05}, {"measurement": "AC50", "setting": "human TSHR [2]; AC50, HTRF cAMP", "result": 10, "unit": "µM"}]}
{"smiles": "O=C(c1ccccc1O)N(Cc1ccco1)Cc1ccco1", "note": "[Structure 219]", "values": [{"measurement": "AC50", "setting": "human TSHR [2]; HTRF cAMP", "result": "inactive"}]}
{"smiles": "COc1ccc(CN(Cc2ccccc2)C(=O)c2ccc(OC)cc2O)cc1", "note": "[Structure 136]", "values": [{"measurement": "Maximum Activity compared to TSH", "setting": "human TSHR [2]", "result": 37.00}, {"measurement": "AC50", "setting": "human TSHR [2]; HTRF cAMP, read-out: AC50", "result": 28.2, "unit": "µM"}]}
{"smiles": "COc1ccc(C2Nc3ccccc3C(=O)N2Cc2ccccc2)cc1Oc1ccc(NC(C)=O)cc1", "note": "(stereo not shown) [Structure 163]", "values": [{"measurement": "AC50", "setting": "human TSHR [2]; HTRF cAMP", "result": "inactive"}]}
{"smiles": "COc1ccc(C(=O)N(Cc2cccs2)Cc2cccs2)c(O)c1", "note": "[Structure 108]", "values": [{"measurement": "Maximum Activity compared to TSH", "setting": "human TSHR [2]", "result": 63.12}, {"measurement": "AC50", "setting": "human TSHR [2]; HTRF cAMP, read-out: AC50", "result": 15.8, "unit": "µM"}]}
